Measured values taken from patent US8507219B2, “Method of treating inflammation with statins” (MUSC Foundation for Research Development, priority 1997, dated 2013).
Several values for one entry are separate records, joined by “and”; a condition that tells them apart may be missing. Equal entries are not always repeated. Where two headings read alike, the source gives them in different places.

How the values were obtained:
[1] = system: NO production in rat C6 glial cells; assay: LPS-/cytokine-induced NO production (nitrite) in C6 glial cells; type: cell-based; conditions: for Nitrite / inhibition at 20000 µM: C6 glial cells, NAC 20 mM 2 h prior; for Nitrite: 24 h; for inhibition at 20000 µM: Rattus norvegicus, Glial cell
[2] = system: TNF-α production in rat resident macrophages; assay: LPS-/IFN-γ-induced TNF-α production (ELISA) in rat macrophages; type: cell-based; conditions: Macrophages; 10 μM lovastatin or 5 mM NaPA 8 h, then LPS 1.0 μg/ml, 24 h
EAE in female Lewis rats = assay: Experimental allergic encephalomyelitis (EAE), clinical score; type: in vivo; conditions: treatment from first day of immunization
Experimental: Rats were induced with EAE by injecting intradermally 50 μg of myelin basic protein (MBP) per animal emulsified in complete Freund's adjuvant (CFA) into the medial footpad of each hind leg on day 1 followed by a booster injection on the 7th day under ether anesthesia. Clinical symptoms in these rats manifest as an ascending paralysis resulting in death in most animals. The signs of EAE were scored as: (0) normal; (1) piloerection; […] (4) paraplegia; and (5) moribund. […] One group of animals induced for EAE was left untreated while another group of animals was not induced for EAE and used as the control group.

[3] = system: IL-6 production in rat primary microglia; assay: LPS-induced IL-6 production (ELISA) in rat primary microglia; type: cell-based; conditions: Microglia; 10 μM lovastatin or 5 mM NaPA 8 h, then LPS 1.0 μg/ml, 24 h
[4] = system: TNF-α production in rat primary microglia; assay: LPS-induced TNF-α production (ELISA) in rat primary microglia; type: cell-based; conditions: Microglia; 10 μM lovastatin or 5 mM NaPA 8 h, then LPS 1.0 μg/ml, 24 h
Experimental: Determination of TNF-α and IL-1β in culture supernatants Cells were stimulated with LPS in serum-free media for 24 h in the presence or absence of forskolin or rolipram, and concentrations of TNF-α and IL-1β were measured in culture supernatants by using high-sensitivity enzyme-linked immunosorbent assay (R&D Systems, USA) according to the manufacturer's instructions.

[5] = system: cultured skin fibroblasts of X-ALD; assay: VLCFA ratios (C26:0/C22:0, C24:0/C22:0) in X-ALD skin fibroblasts; type: cell-based, human; set-up: C24:0/C22:0: concentration or dose not given beside the values
[6] = system: NO production in rat primary microglia; assay: LPS-induced NO production (nitrite) in rat primary microglia; type: cell-based; conditions: Microglia; 10 μM lovastatin or 5 mM NaPA 8 h, then LPS 1.0 μg/ml, 24 h
[7] = system: NO production in rat resident macrophages; assay: LPS-/cytokine-induced NO production (nitrite) in rat resident peritoneal macrophages; type: cell-based; conditions: for inhibition at 20000 µM: Rattus norvegicus, Macrophage
Experimental: Isolation of Rat Macrophages and Induction of NO Production Resident macrophages were obtained from rats by peritoneal lavage with sterile RPMI 1640 medium containing 1% fetal bovine serum and 100 μg/ml gentamicin (Wang et al., 1995). Cells were washed three times with RPMI 1640 at 4° C. All cell cultures were maintained at 37° C. in a humidified incubator containing 5% CO2 in air. Macrophages, at a concentration of 2×10^6/ml in RPMI 1640 medium containing L-glutamine and gentamicin, were added in volumes of 800 μl to a 35 mm plate. After 1 h, nonadherent cells were removed by washing and 800 μl of serum-free RPMI 1640 medium with various stimuli were added to the adherent cells. After 24 h incubation in 5% CO2 in air at 37° C., the culture supernatants were transferred to measure NO production (Geng et al., 1995; Wang et al., 1995).
Isolation of rat macrophages and induction of NO production Resident macrophages were obtained from rat by peritoneal lavage with sterile RPMI 1640 medium containing 1% fetal bovine serum and 100 μg/ml gentamicin as described herein. Cells were washed three times with RPMI 1640 at 4° C. All cell cultures were maintained at 37° C. in a humidified incubator containing 5% CO2 in air. Macrophages at a concentration of 2×10^6/ml in RPMI 1640 medium containing L-glutamine and gentamicin were added in volumes of 800 μl to a 35 mm plate. After 1 h, nonadherent cells were removed by washing and 800 μl of serum-free RPMI 1640 medium with various stimuli were added to the adherent cells. After incubation in 5% CO2 in air at 37° C., culture supernatants were transferred to measure NO production.
Isolation of rat macrophages and induction of NO production Resident macrophages were obtained from rat by peritoneal lavage with sterile RPMI 1640 medium containing 1% FBS and 100 μg/ml gentamicin. Cells were washed three times with RPMI 1640 at 4° C., and were maintained at 37° C. in a humidified incubator containing 5% CO2 in air. Macrophages at a concentration of […] in RPMI 1640 medium containing L-glutamine and gentamicin were added in volumes of 800 μl to a 35-mm plate. After 1 h, nonadherent cells were removed by washing, and 800 μl of serum-free RPMI 1640 medium with various stimuli was added to the adherent cells. After 24 h the culture supernatants were transferred to measure NO production.
Protein was measured (Bradford, 1976).

[8] = system: IL-1β production in rat macrophages; assay: LPS-induced IL-1β production (ELISA) in rat macrophages; type: cell-based; conditions: Macrophages; 10 μM lovastatin or 5 mM NaPA 8 h, then LPS 1.0 μg/ml, 24 h
IFN-γ = assay: Immunohistochemistry of IFN-γ in brain sections of EAE rats; type: in vivo, Lewis rats; conditions: daily i.p. treatment from day 1
Experimental: (§1) One group of animals induced for EAE was left untreated while another group of animals was not induced for EAE and used as the control group.
(§2) Immunohistochemistry Brains were fixed in 10% buffered formalin (Stephens Scientific, Riverdale, N.J.). The tissues were embedded in paraffin and sectioned at 4 μm. Sections were then stained for various cytokines and cell markers as described below. For single-label immunohistochemistry, sections were incubated with either anti-iNOS antibody (1:100, rabbit polyclonal, Calbiochem, LaJolla, Calif.) or anti-TNF-α antibody (1:100, rabbit polyclonal, Genzyme, Cambridge, Mass.) or anti-IFN-γ antibody (1:200, rabbit polyclonal, Biosource International, Camarillo, Calif.) essentially as described for other antibodies (Hooper et al., 1997). The tissue sections were further incubated with FITC conjugated anti-rabbit IgG (1:100, Sigma, St. Louis, Mo.), mounted with mounting media (EMS) and analyzed by immunofluorescence microscopy (Olympus) using Adobe photoshop software. For immunofluorescent double-labeling, sections were incubated first with anti-iNOS (1:100) followed by macrophage marker ED1 (1:100, mouse monoclonal, Biosource International, Camarillo, Calif.). Anti-iNOS was visualized using TRITC conjugated anti-rabbit IgG—(1:100, Sigma, St. Louis, Mo.) and ED1 using FITC conjugated anti-mouse IgG (1:100, Sigma, St. Louis, Mo.). […]

iNOS = assay: Immunofluorescence of iNOS in brain sections of EAE rats; type: in vivo, Lewis rats; conditions: daily i.p. treatment from day 1
Experimental: as §1, §2

TNF-α = type: in vivo, Lewis rats; conditions: daily i.p. treatment from day 1
Experimental: as §1, §2

For CC[C@H](C)C(=O)O[C@H]1C[C@@H](C)C=C2C=C[C@H](C)[C@H](CC[C@@H]3C[C@@H](O)CC(=O)O3)[C@H]21 [Lovastatin], the “LPS- and cytokine-induced NO production” value [1] was “inhibit LPS- and cytokine-induced NO production in rat C6 glial cells”, the “Production of TNF-α” value [2] was 1.2 ± 0.1 ng/24 h/mg protein and the “protection against EAE disease” value (EAE in female Lewis rats) was “significantly delayed the onset of first of clinical symptom”. The “Production of IL-6” value [3] was 7.8 ± 1.1 ng/24 h/mg protein, the “Production of TNF-α” value [4] was 0.9 ± 0.1 ng/24 h/mg protein and the “C24:0/C22:0” value [5] was 1.25 ± 0.15 and 1.28 ± 0.21 and 1.31 ± 0.18 and 1.26 ± 0.16 and 1.29 ± 0.02. The “Production of NO” value [6] was 5.9 ± 0.4 nmol/24 h/mg protein, the “Production of NO” value ([7]; Macrophages, 10 μM lovastatin or 5 mM NaPA 8 h, then LPS 1.0 μg/ml, 24 h) was 7.2 ± 0.9 nmol/24 h/mg protein and the “Production of IL-1β” value [8] was 2.3 ± 0.3 ng/24 h/mg protein.

CC(=O)N[C@@H](CS)C(=O)O [NAC, N-acetyl cysteine] gave a Nitrite ([1]; stimulus LPS + IFN-γ) of 8.2 ± 1.4 nmol/mg/24 h, a Nitrite ([1]; stimulus LPS + IL-1β) of 5.8 ± 1.2 nmol/mg/24 h and a Nitrite ([1]; stimulus LPS + TNF-α) of 7.1 ± 1.1 nmol/mg/24 h. For the same compound, the Nitrite ([1]; stimulus TNF-α + IFN-γ) was 8.4 ± 2.1 nmol/mg/24 h, the Nitrite ([1]; stimulus TNF-α + IL-1β) was 4.2 ± 0.8 nmol/mg/24 h and the inhibition at 20000 µM ([1]; stimulus LPS + IFN-γ) was 74%. For the same compound, the inhibition at 20000 µM ([1]; stimulus LPS + IL-1β) was 75%, the inhibition at 20000 µM ([1]; stimulus LPS + TNF-α) was 79% and the inhibition at 20000 µM ([1]; stimulus TNF-α + IFN-γ) was 73%. For the same compound, the inhibition at 20000 µM ([1]; stimulus TNF-α + IL-1β) was 80%, the “protection against EAE disease” value (EAE in female Lewis rats) was “protected the rats from the severity of the disease” and the “expression of IFN-γ in EAE brain” value (IFN-γ) was “blocked the induction of IFN-γ”. The “expression of iNOS in EAE brain” value (iNOS) was “blocked the ability of MBP to induce the expression of iNOS”, the Nitrite ([7]; IFN-γ 200 U/ml, NAC 20 mM 2 h before) was 9.9 ± 1.8 nmol/mg/24 h and the Nitrite ([7]; IL-1β 200 ng/ml, NAC 20 mM 2 h before) was 9.2 ± 0.7 nmol/mg/24 h. For the same compound, the Nitrite ([7]; LPS 0.2 μg/ml + IFN-γ 50 U/ml, NAC 20 mM 2 h before) was 25.2 ± 3.9 nmol/mg/24 h, the Nitrite ([7]; LPS 0.2 μg/ml + IL-1β 25 ng/ml, NAC 20 mM 2 h before) was 28.4 ± 3.7 nmol/mg/24 h and the Nitrite ([7]; LPS 0.2 μg/ml + TNF-α 20 ng/ml, NAC 20 mM 2 h before) was 13.6 ± 2.6 nmol/mg/24 h. For the same compound, the Nitrite ([7]; LPS 1.0 μg/ml, 24 h, NAC 20 mM 2 h before LPS, NMA 0.1 mM, arginase 100 units/ml with LPS) was 11.6 ± 1.5 nmol/mg Protein^24h, the “rate of nitrite accumulation” value ([7]; LPS 1.0 μg/ml, NAC 20 mM, onset of NO release until 24 h, 5.2 in the absence of NAC) was 0.5 nmol/mg/h and the Nitrite ([7]; LPS 1.0 μg/ml, NAC 20 mM 2 h before) was 11.6 ± 1.5 nmol/mg/24 h. For the same compound, the Nitrite ([7]; NAC 20 mM alone, no LPS, 24 h) was 6.2 ± 0.8 nmol/mg Protein^24h, the inhibition at 20000 µM ([7]; 7 h, NAC 20 mM added 7 h after the addition of LPS, read-out: inhibition of nitrite production) was 20% and the inhibition at 20000 µM ([7]; IFN-γ 200 U/ml, NAC 20 mM 2 h before, read-out: Inhibition (%) of nitrite) was 89%. It also gave an inhibition at 20000 µM ([7]; IL-1β 200 ng/ml, NAC 20 mM 2 h before, read-out: Inhibition (%) of nitrite) of 57%, an inhibition at 20000 µM ([7]; LPS 0.2 μg/ml + IFN-γ 50 U/ml, NAC 20 mM 2 h before, read-out: Inhibition (%) of nitrite) of 84% and an inhibition at 20000 µM ([7]; LPS 0.2 μg/ml + IL-1β 25 ng/ml, NAC 20 mM 2 h before, read-out: Inhibition (%) of nitrite) of 81%. For the same compound, the inhibition at 20000 µM ([7]; LPS 0.2 μg/ml + TNF-α 20 ng/ml, NAC 20 mM 2 h before, read-out: Inhibition (%) of nitrite) was 92%, the inhibition at 20000 µM ([7]; LPS 1.0 μg/ml, NAC 20 mM 2 h before, read-out: Inhibition (%) of nitrite) was 91% and the inhibition at 20000 µM ([7]; NAC 20 mM, 2 h before LPS, read-out: inhibition of LPS-mediated nitrite production) was > 90%. For the same compound, the inhibition at 20000 µM ([7]; TNF-α 20 ng/ml + IFN-γ 50 U/ml, NAC 20 mM 2 h before, read-out: Inhibition (%) of nitrite) was 79%, the inhibition at 20000 µM ([7]; TNF-α 20 ng/ml + IL-1β 25 ng/ml, NAC 20 mM 2 h before, read-out: Inhibition (%) of nitrite) was 83% and the inhibition at 20000 µM ([7]; TNF-α 100 ng/ml, NAC 20 mM 2 h before, read-out: Inhibition (%) of nitrite) was 64%. The inhibition at 20000 µM ([7]; no stimulus (Control), NAC 20 mM, read-out: Inhibition (%) of nitrite) was 37%, the inhibition at 20000 µM ([7]; of LPS (1.0 μg/ml)-induced nitrite, NAC 20 mM 2 h before, NMA 0.1 mM, arginase 100 units/ml with LPS, read-out: Inhibition (%)) was 91% and the Nitrite ([7]; TNF-α 20 ng/ml + IFN-γ 50 U/ml, NAC 20 mM 2 h before) was 29.6 ± 4.2 nmol/mg/24 h. The Nitrite ([7]; TNF-α 20 ng/ml + IL-1β 25 ng/ml, NAC 20 mM 2 h before) was 22.8 ± 2.7 nmol/mg/24 h, the Nitrite ([7]; TNF-α 100 ng/ml, NAC 20 mM 2 h before) was 10.1 ± 1.6 nmol/mg/24 h and the Nitrite ([7]; no stimulus (Control), NAC 20 mM) was 6.2 ± 0.8 nmol/mg/24 h. For the same compound, the “expression of TNF-α in EAE brain” value (TNF-α) was “blocked the induction of TNF-α”.
